Molecular target: T1, recombinant His-tag Y220C p53 DBD protein (Homo sapiens, UniProt P04637, Y220C)
T1 construct: recombinant His-tag Y220C p53 DBD protein (amino acids #˜94-312)
Experiment: In vitro DNA binding activity assay (TR-FRET): binding of His-tag Y220C p53 DBD to biotin-labeled consensus DNA
Type: biochemical
Conditions: SC150 = concentration to increase DNA binding by […], His-tag Y220C p53 DBD, biotin-labeled consensus DNA

SMILES | Y220C SC150 (μM)
CN(C)C[C@@H]1C[C@H]1C(=O)NCc1nc(-c2cc3c(N[C@@H]4CCN(C)C[C@@H]4F)cccc3n2CC(F)(F)F)no1 [Compound 264B, (1R,2R)-2-[(dimethylamino)methyl]-N-{[3-(4-{[(3S,4R)-3-fluoro-1-methylpiperidin-4-yl]amino}-1-(2,2,2-trifluoroethyl)-1H-indol-2-yl)-1,2,4-oxadiazol-5-yl]methyl}cyclopropane-1-carboxamide] | * (* = 0 μM ≤ SC150 < 0.1 μM)
CN1CC[C@@H](Nc2cccc3c2cc(-c2noc(CNC(=O)[C@@H]4C[C@H]4CN4CCCC4)n2)n3CC(F)(F)F)[C@@H](F)C1 [Compound 265B, (1R,2R)-N-{[3-(4-{[(3S,4R)-3-fluoro-1-methylpiperidin-4-yl]amino}-1-(2,2,2-trifluoroethyl)-1H-indol-2-yl)-1,2,4-oxadiazol-5-yl]methyl}-2-[(pyrrolidin-1-yl)methyl]cyclopropane-1-carboxamide] | * (* = 0 μM ≤ SC150 < 0.1 μM)
CN1CC[C@@H](Nc2cccc3c2cc(-c2noc(CNC(=O)c4ccc5cc[nH]c5c4)n2)n3CC(F)(F)F)[C@@H](F)C1 [Compound 267B, N-{[3-(4-{[(3S,4R)-3-fluoro-1-methylpiperidin-4-yl]amino}-1-(2,2,2-trifluoroethyl)-1H-indol-2-yl)-1,2,4-oxadiazol-5-yl]methyl}-1H-indole-6-carboxamide] | * (* = 0 μM ≤ SC150 < 0.1 μM)
CN1CC[C@@H](Nc2cccc3c2cc(-c2noc(CNC(=O)c4cncn4C(C)(C)C)n2)n3CC(F)(F)F)[C@@H](F)C1 [Compound 270B, 1-tert-butyl-N-{[3-(4-{[(3S,4R)-3-fluoro-1-methylpiperidin-4-yl]amino}-1-(2,2,2-trifluoroethyl)-1H-indol-2-yl)-1,2,4-oxadiazol-5-yl]methyl}-1H-imidazole-5-carboxamide] | * (* = 0 μM ≤ SC150 < 0.1 μM)
CCN1CC[C@@H](Nc2cccc3c2cc(-c2noc(CNC(=O)c4ccn(CCOC)c4)n2)n3CC(F)(F)F)[C@@H](F)C1 [Compound 272B, N-{[3-(4-{[(3S,4R)-1-ethyl-3-fluoropiperidin-4-yl]amino}-1-(2,2,2-trifluoroethyl)-1H-indol-2-yl)-1,2,4-oxadiazol-5-yl]methyl}-1-(2-methoxyethyl)-1H-pyrrole-3-carboxamide] | * (* = 0 μM ≤ SC150 < 0.1 μM)

Next, values leading:

Y220C SC150 (μM) | SMILES
* (* = 0 μM ≤ SC150 < 0.1 μM) | Cc1c[nH]c2ccc(C(=O)NCc3nc(-c4cc5c(N[C@@H]6CCN(C)C[C@@H]6F)cccc5n4CC(F)(F)F)no3)cc12 [Compound 266B, N-{[3-(4-{[(3S,4R)-3-fluoro-1-methylpiperidin-4-yl]amino}-1-(2,2,2-trifluoroethyl)-1H-indol-2-yl)-1,2,4-oxadiazol-5-yl]methyl}-3-methyl-1H-indole-5-carboxamide]
* (* = 0 μM ≤ SC150 < 0.1 μM) | COCCn1cncc1C(=O)NCc1nc(-c2cc3c(N[C@@H]4CCN(C)C[C@@H]4F)cccc3n2CC(F)(F)F)no1 [Compound 268B, N-{[3-(4-{[(3S,4R)-3-fluoro-1-methylpiperidin-4-yl]amino}-1-(2,2,2-trifluoroethyl)-1H-indol-2-yl)-1,2,4-oxadiazol-5-yl]methyl}-1-(2-methoxyethyl)-1H-imidazole-5-carboxamide]
* (* = 0 μM ≤ SC150 < 0.1 μM) | CC[C@@H]1C[C@H]1C(=O)NCc1nc(-c2cc3c(N[C@@H]4CCN(C)C[C@@H]4F)cccc3n2CC(F)(F)F)no1 [Compound 269B, (1R,2R)-2-ethyl-N-{[3-(4-{[(3S,4R)-3-fluoro-1-methylpiperidin-4-yl]amino}-1-(2,2,2-trifluoroethyl)-1H-indol-2-yl)-1,2,4-oxadiazol-5-yl]methyl}cyclopropane-1-carboxamide]
* (* = 0 μM ≤ SC150 < 0.1 μM) | CCN1CC[C@H](Nc2cccc3c2cc(-c2noc(CNC(=O)c4ccn(CCOC)c4)n2)n3CC(F)(F)F)[C@H](F)C1 [Compound 273B, N-{[3-(4-{[(3R,4S)-1-ethyl-3-fluoropiperidin-4-yl]amino}-1-(2,2,2-trifluoroethyl)-1H-indol-2-yl)-1,2,4-oxadiazol-5-yl]methyl}-1-(2-methoxyethyl)-1H-pyrrole-3-carboxamide]

Source: US11807644B2 (PMV Pharmaceuticals, Inc., priority 2020, dated 2023)
